Experiments:
Format in all cases: binding
Conditions in all cases: read-out: [drawing 1] /
UbiG [1] = molecular target: T1, UbiG (Escherichia coli, UniProt P17993, DEL165-187); experiment: isothermal titration calorimetry; X-ray structure of the complex […] Å
T1 construct: full-length, 240 residues, pET28a-UbiG (1-240), expressed in E. coli BL21 (DE3); purified as described previously

UbiG [2] = molecular target: T2, UbiG (Escherichia coli, UniProt P17993); experiment: isothermal titration calorimetry
T2 construct: full-length, 240 residues, pET28a-UbiG (1-240), expressed in E. coli BL21 (DE3); purified as described previously
T2 sequence (P17993 1-240): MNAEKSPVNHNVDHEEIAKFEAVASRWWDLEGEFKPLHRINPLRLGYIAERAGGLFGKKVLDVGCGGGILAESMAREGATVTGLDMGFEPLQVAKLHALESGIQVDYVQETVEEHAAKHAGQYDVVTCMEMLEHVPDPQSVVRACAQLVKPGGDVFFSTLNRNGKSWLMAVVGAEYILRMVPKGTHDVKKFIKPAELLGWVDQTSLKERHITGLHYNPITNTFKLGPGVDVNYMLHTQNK
Description: (§1) isothermal titration calorimetry on UbiG

UbiG [3] = molecular target: T3, UbiG (Escherichia coli, UniProt P17993, I177A/P182A/V181A); experiment: isothermal titration calorimetry
T3 construct: full-length, 240 residues, pET28a-UbiG (1-240), expressed in E. coli BL21 (DE3); purified as described previously
Description: as §1

UbiG [4] = molecular target: T4, UbiG (Escherichia coli, UniProt P17993, V172A/Y176A); experiment: isothermal titration calorimetry
T4 construct: full-length, 240 residues, pET28a-UbiG (1-240), expressed in E. coli BL21 (DE3); purified as described previously
Description: as §1

T1 sequence (P17993 other isoform, or with tags, fused parts or gaps DEL165-187): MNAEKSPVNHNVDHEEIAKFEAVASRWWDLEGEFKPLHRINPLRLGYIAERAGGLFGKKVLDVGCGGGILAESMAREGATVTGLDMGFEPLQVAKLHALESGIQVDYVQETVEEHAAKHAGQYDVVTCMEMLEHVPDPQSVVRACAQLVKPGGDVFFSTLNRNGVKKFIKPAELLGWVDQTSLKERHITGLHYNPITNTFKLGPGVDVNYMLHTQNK
T3 sequence (P17993 whole entry I177A/V181A/P182A): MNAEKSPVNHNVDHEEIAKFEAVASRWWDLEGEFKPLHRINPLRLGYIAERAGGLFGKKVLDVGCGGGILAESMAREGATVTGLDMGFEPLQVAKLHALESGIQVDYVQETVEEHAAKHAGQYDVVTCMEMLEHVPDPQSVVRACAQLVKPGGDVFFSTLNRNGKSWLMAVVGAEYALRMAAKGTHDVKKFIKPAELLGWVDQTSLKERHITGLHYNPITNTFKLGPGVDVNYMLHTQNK
T4 sequence (P17993 whole entry V172A/Y176A): as the sequence (P17993 whole entry I177A/V181A/P182A) above, with V172A, Y176A, A177I, A181V, A182P counted along it

Kd (UbiG [1]): 1.84 ± 0.16 µM
Kd (UbiG [2]): 104 ± 17.2 µM
Kd (UbiG [3]): 2.77 ± 0.36 µM
Kd (UbiG [4]): 3.37 ± 0.84 µM
SMILES: Nc1ncnc2c1ncn2[C@@H]1O[C@H](CSCC[C@H](N)C(=O)O)[C@@H](O)[C@H]1O [SAH]

— article PMC4796655, “Structural insights into the methyl donor recognition model of a novel membrane-binding protein UbiG” (Scientific Reports, 2016)
